Data from patent US5434052A, “Complementation assay for drug screening” (Microgenics Corporation, priority 1993, dated 1995).
Values belong to the molecule of their own block, whether it stands above or below them.

Assays:
[1] = biological target: T1, bovine Folate Binding Protein (Bos taurus, UniProt P02702); assay: Inhibition of ED14-Folate conjugate with folate binding protein; competition by folic acid sample, β-galactosidase complementation; design: dose or concentration left out as unconfirmed; conditions: folate binding protein diluted approximately 1:2500
T1 construct: purchased Biochemical Inc., Englewood, Colo
T1 sequence (P02702 20-241): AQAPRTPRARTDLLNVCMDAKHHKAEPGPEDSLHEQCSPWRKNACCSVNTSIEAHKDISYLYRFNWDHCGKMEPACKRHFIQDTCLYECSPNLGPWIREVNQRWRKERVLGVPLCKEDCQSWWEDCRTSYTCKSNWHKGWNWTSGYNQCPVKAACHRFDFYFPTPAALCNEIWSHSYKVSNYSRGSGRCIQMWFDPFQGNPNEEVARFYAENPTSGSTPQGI
Method: Binding Protein Reagent consists of bovine Folate Binding Protein (Biochemical Inc., Englewood, Colo.) diluted approximately 1:2500 in 150 mM potassium phosphate, 50 mM sodium borate, 1% BSA (B12-Grade BSA, Sigma, St. Louis, Mo.), 1% Lubrol and 20 mM sodium azide, pH 7.0. ED14-Folate Conjugate/Substrate Reagent contains approximately 6.3 nM ED-Folate, 1.0 mg/ml OCNPG (o-chloro-p-nitrophenol galactopyranoside), 100 mM sodium phosphate, 150 mM potassium phosphate, 10 mM ethylene glycol tetraacetic acid, 2.5 mM dithiothreitol, 20 mM sodium azide, 0.05% Tween 20 with 0.05 mM dithiothreitol, pH 7.0. EA Reagent consists of a recombinant protein resembling the carboxyl-terminal end of β-galactosidase in 100 mM sodium phosphate, 150 mM potassium phosphate, 10 mM ethylene glycol tetraacetic acid, 5 mM magnesium acetate, 20 mM sodium azide, 0.05% Tween 20 with 0.05 mM dithiothreitol pH 7.0. EA concentration is approximately 2.2 μM. The assay procedure involves mixing of 300 μl of folic acid sample with 100 μl of binding protein reagent and incubation for 15 min at room temperature. This becomes the pretreated sample. An instrument (clinical chemistry analyzer) is programmed to deliver 30 μl of pretreated sample with 100 μl of ED-Folate reagent for 2 to 5 min at 37° C. This is followed by the addition of 220 μl of EA reagent to the reaction mixture by the instrument and the enzyme rate is read by absorbance change at […]. The following table indicates a typical assay performance.

[2] = biological target: T2, (Homo sapiens, UniProt P05543); assay: Inhibition of ED4-T4 conjugate by thyroxin binding globulin, β-galactosidase complementation; conditions: 18 nM ED4-T4; for Observed Enzyme Rate: 420 nM, 37° C.
T2 construct: purchased Protus Laboratories, South San Francisco, CA
T2 sequence (P05543 21-415): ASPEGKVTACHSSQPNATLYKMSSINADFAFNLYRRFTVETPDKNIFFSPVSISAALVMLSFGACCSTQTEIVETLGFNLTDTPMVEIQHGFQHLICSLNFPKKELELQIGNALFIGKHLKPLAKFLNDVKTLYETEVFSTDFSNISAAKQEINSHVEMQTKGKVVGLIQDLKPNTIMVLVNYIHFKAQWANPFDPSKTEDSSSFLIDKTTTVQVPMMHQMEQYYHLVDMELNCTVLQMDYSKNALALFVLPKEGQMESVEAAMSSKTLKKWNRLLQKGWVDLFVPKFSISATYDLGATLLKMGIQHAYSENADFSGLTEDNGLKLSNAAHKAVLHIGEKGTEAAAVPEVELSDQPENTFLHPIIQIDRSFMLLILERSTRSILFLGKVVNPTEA
Method: Buffer=20 mM NaPO4 10 mM EGTA, 2 mM MgOAc, 3.6% Glycerol, 5 mM Sucrose, 20 mM NaN3, pH 7.0
Reagent=5U EA/Test or 31.25 U/ml of EA in EA Buffer
Buffer=20 mM NaPO4, 10 mM EGTA, 6.25 mg/ml ONPG, 0.05% Tween/DTT, 20 mM NaN3, pH 7.0
Reagent=18 nM ED4-T4 system concentration or 112.5 nM ED4-T4 in ED reagent buffer
Machine Program Parameters:
The receptor was purified TBG from Protus Laboratories, South San Francisco, CA diluted in PBS.

% Inhibition of ED14-Folate Conjugate ([1]; folate in sample 20): 18.8%
Observed Enzyme Rate ([1]; folate in sample 20): 290
% Inhibition of ED14-Folate Conjugate ([1]; folate in sample 200): 0.0%
Observed Enzyme Rate ([1]; folate in sample 200): 357
Molecule: Nc1nc2ncc(CNc3ccc(C(=O)N[C@@H](CCC(=O)O)C(=O)O)cc3)nc2c(=O)[nH]1 [Folate, Folic acid]

% Inhibition ([2]; TBG receptor 18.3 μg/ml): 22%
Observed Enzyme Rate ([2]; TBG receptor 18.3 μg/ml): 367 mA/min
% Inhibition ([2]; TBG receptor 55.0 μg/ml): 68%
Observed Enzyme Rate ([2]; TBG receptor 55.0 μg/ml): 154 mA/min
B1: TBG: purified TBG from Protus Laboratories, diluted in PBS (protein, UniProt P05543 21-415, looked up)
Thyroxine-binding globulin: T2 sequence (P05543 21-415)
